The values below come from patent US20240252499A1, “Treatment of uremic pruritus” (CymaBay Therapeutics, Inc., priority 2023, published 2024).

The test system of data set [1] is IL-31. The following applies: NASH patients; cited from earlier work.
Another data set has as its target T1, PPARa (Homo sapiens, UniProt Q07869).
T1 sequence (Q07869 1-468): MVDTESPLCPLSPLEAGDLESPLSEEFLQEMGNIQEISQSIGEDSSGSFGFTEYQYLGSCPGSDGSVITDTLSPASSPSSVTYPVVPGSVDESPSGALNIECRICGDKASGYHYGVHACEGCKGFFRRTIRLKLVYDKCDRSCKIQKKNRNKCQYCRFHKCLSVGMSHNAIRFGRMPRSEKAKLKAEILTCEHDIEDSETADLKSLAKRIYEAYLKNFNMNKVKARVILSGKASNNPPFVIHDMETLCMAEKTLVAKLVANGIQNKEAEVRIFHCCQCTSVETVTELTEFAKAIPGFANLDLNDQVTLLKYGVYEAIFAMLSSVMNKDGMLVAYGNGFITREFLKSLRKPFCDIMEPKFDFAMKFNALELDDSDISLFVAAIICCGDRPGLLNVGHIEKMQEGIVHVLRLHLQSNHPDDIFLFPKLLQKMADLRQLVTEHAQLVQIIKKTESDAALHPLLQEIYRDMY
The following applies: read-out: ECso for PPARa; cited from earlier work.

A short description of data set [2]: Example 6: oral mavodelpar in uremic pruritus. It is filed as in vivo, human. The conditions noted are these: oral 5, 10, 25, 50 and 100 mg/day; end-stage renal disease on hemodialysis. The procedure: (§1) Adult subjects with end-stage renal disease on routine hemodialysis are treated orally with doses of 5, 10, 25, 50, and 100 mg/day of mavodelpar. Subjects are permitted their usual other medications. The subjects are assessed before the study, and at intervals during the study, such as every 4 weeks during the study and 4 weeks after the last dose of the mavodelpar therapy, for safety and pharmacodynamic evaluations. At each visit, the subjects are assessed for their disease symptoms and biomarkers, and assessed for uremic pruritus. The subjects also maintain health diaries, which are reviewed at each visit.

Data set [3] is described as follows: Example 7: topical mavodelpar in uremic pruritus. It is filed as in vivo, human. The following applies: topical ointment 1, 2, 5 or 10%; end-stage renal disease on hemodialysis. The procedure:
as §1, with “topically” for “orally”, “an ointment containing 1, 2,” for “doses of”, “or 10%” for “10, 25, 50, and 100 mg/day”, “for” for “for uremic”

Another data set has as its target T2, PPARy (Homo sapiens, UniProt P37231).
T2 sequence (P37231 1-505): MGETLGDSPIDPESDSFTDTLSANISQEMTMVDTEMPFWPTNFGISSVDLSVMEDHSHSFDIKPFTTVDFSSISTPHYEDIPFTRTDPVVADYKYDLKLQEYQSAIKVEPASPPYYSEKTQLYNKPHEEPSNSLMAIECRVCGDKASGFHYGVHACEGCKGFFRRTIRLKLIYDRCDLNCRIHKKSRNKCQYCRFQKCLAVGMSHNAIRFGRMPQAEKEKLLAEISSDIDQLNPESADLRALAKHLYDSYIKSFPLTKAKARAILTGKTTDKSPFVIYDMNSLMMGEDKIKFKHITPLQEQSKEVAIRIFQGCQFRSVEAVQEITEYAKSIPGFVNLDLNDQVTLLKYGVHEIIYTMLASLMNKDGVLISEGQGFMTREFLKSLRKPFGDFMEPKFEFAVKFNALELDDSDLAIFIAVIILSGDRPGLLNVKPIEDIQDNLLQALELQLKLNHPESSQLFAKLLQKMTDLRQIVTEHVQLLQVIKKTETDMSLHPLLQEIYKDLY
The conditions noted are these: read-out: ECso for PPARy; cited from earlier work.

For data set [4] the following is noted: 12-month trial, PBC patients, cited from earlier work.
Another data set has as its system human IL-31. The experiment in a line: Serum human IL-31 in PXB mice (humanized liver) after 19 days of dosing. It is filed as in vivo, PXB mouse. The conditions noted are these: gavage once/day for 19 days, 2 h after last dose; day 0 0.13 pg/mL. The source says:
The PXB mouse (PhoenixBio Co., Ltd., Higashi-Hiroshima, Japan) is a chimeric mouse with a humanized liver, produced by transplanting human hepatocytes into the albumin enhancer/promoter-urokinase-type plasminogen activator complementary DNA transgenic/SCID mouse. The mouse has its liver repopulated by human hepatocytes at a ratio of more than 70%, typically 85-90%, as assessed by measuring the ratio of human albumin to mouse albumin in the blood. The transplanted human hepatocytes express a variety of human messenger RNA (mRNA) and proteins, in a similar manner to those of the normal human liver. […] The study was conducted at PhoenixBio. Male PXB mice aged about 25 weeks, kept in single animal cages and fed CRF1 mouse chow supplemented with AS primate chow for vitamin C supplementation (both from Oriental Yeast Co., Ltd., Tokyo, Japan), were randomized into groups (10/group) based on mean values for body weight and blood human albumin concentration. […] Two hours after the last dose, each mouse was anesthetized with isoflurane, at least 400 μL blood was collected by cardiac puncture, and the mouse sacrificed by exsanguination. The blood samples were left to coagulate at room temperature for at least 5 minutes, then centrifuged at 13200×g for 3 minutes at 4 °C to obtain serum, which was analyzed for human IL-31.

Data set [5] has as its system IL-31. The following applies: humanized liver murine model; cited from earlier work.
Data set [6] is described as follows: Example 4: oral seladelpar in uremic pruritus. It is filed as in vivo, human. The conditions noted are these: oral 5, 10, 25 and 50 mg/day; end-stage renal disease on hemodialysis. The method, then:
Subjects are permitted their usual other medications. […] At each visit, the subjects are assessed for their disease symptoms and biomarkers, and assessed for uremic pruritus. The subjects also maintain health diaries, which are reviewed at each visit.

In data set [7] the test system is IL-31. Kind of data set: ENHANCE phase 3 study in PBC (NCT03602560): serum IL-31. The conditions noted are these: 12 weeks, p<0.001. It is filed as in vivo, human. The source says:
The trial subjects in this phase 3 study were adult, male or female, with a diagnosis of PBC. Exclusion criteria included AST or ALT≥3×ULN, total bilirubin (TBIL)≥2×ULN, autoimmune hepatitis or a history of chronic viral hepatitis, PSC, the current use of fibrates or simvastatin, the use of colchicine, methotrexate, azathioprine, or systemic steroids in the previous two months, the use of an experimental treatment for PBC, and the use of an experimental or unapproved immunosuppressant. […] Serum IL-31 and its correlation with patient-reported pruritus numerical rating scale (NRS, 0-10) were assessed. Baseline IL-31 levels positively correlated with pruritus NRS; r=0.54, p<0.0001). […] IL-31 compared to subjects with pruritus NRS<4 (7.6 pg/mL [1.2, 14.5] vs 1.2 pg/mL [0.3, 2.8], p<0.0001). At baseline, IL-31 was also correlated with serum total bile acids (r=0.54, p<0.0001) and alkaline phosphatase (ALP) (r=0.44, p<0.0001).

Data set [8] deals with T3, peroxisome proliferator-activated receptor-α (Homo sapiens, UniProt Q07869).
T3 sequence (Q07869 1-468): T1 sequence (Q07869 1-468)
Kind of data set: Specificity of seladelpar for PPARδ compared with PPARα. It is filed as biochemical. The following applies: PPARδ vs PPARα. The text has this:
It is specific (>600-fold and >2500-fold compared with peroxisome proliferator-activated receptor-α and peroxisome proliferator-activated receptor-γ receptors). PPARδ activation stimulates fatty acid oxidation and utilization, improves plasma lipid and lipoprotein metabolism, glucose utilization, and mitochondrial respiration, and preserves stem cell homeostasis.

Data set [9] is described as follows: Studies of oral seladelpar in PBC. It is filed as in vivo, human.
Data set [10] deals with IL-31 production by CD4 T cells. Kind of data set: IL-31 production by CD4 T cells under Th2-promoting conditions. It is filed as cell-based, human. The conditions noted are these: for IL-31 concentration in culture medium, mean: 10 μM seladelpar. The procedure: CD4 T cells were enriched from peripheral blood mononuclear cells collected from two normal healthy donors, using the EasySep™ Human CD4+ T Cell Isolation Kit ([…] Technologies). 100,000 CD4 T cells were seeded in a U-bottom 96-well-plate well, and cultured in Th2-promoting conditions promoted by IL-4 or IL-33. […] On day 5 of culture, the anti-CD3/CD28 beads were diluted by adding 150 μL TCM. From days 5 to 13, the cells were cultured in the presence of the same reagents as for days 1 to 4 plus 50 ng/ml IL-2; and the cell culture medium was renewed every 2-3 days by a change of 50% volume of the medium. On day 13 or day 14, the expanded T cells in an individual well were split to four to six wells of 96-well-plate wells; and 5 ng/mL phorbol myristate acetate and 500 ng/mL ionomycin were added for 3 days to re-activate the T cells. The IL-31 concentration in the culture medium of each well was determined using the V-PLEX Human IL-31 Kit (Meso Scale Diagnostics, LLC; Rockville, MD, USA).

Data set [11] in a line: Example 5: topical seladelpar in uremic pruritus. The conditions noted are these: topical ointment 1, 2, 5 or 10%; end-stage renal disease on hemodialysis. It is filed as in vivo, human. The method, then:
Subjects are permitted their usual other medications. […] At each visit, the subjects are assessed for their disease symptoms and biomarkers, and assessed for pruritus. The subjects also maintain health diaries, which are reviewed at each visit.

Like-named read-outs stand apart in the source and are kept apart here.

In the case of `O=C(O)c1ccnc(N2CC(O)(c3ccc(OCc4c(-c5c(Cl)cccc5Cl)noc4C4CC4)cc3Cl)C2)c1` [cilofexor], the “effect on IL-31” value with IL-31 [1] is reported as “increased IL-31”.

For `Cc1cc(OC/C=C(/c2ccc(F)cc2)c2ccc(C#CCN3CCOCC3)cc2)ccc1OCC(=O)O` [mavodelpar, (4-{[(2E)-3-(4-fluorophenyl)-3-{4-[3-(morpholin-4-yl)prop-1-yn-1-yl]phenyl}prop-2-en-1-yl]oxy}-2-methylphenoxy)acetic acid], the EC50 at PPARa and at PPARy was more than 10 µM in each case. Also, the uremic pruritus entry in data set [2] and in [3] was “improvement in their uremic pruritus” throughout.

In the case of `CC[C@H]1[C@@H](O)[C@@H]2[C@H](CC[C@]3(C)[C@@H]([C@H](C)CCC(=O)O)CC[C@@H]23)[C@@]2(C)CC[C@@H](O)C[C@@H]12` [obeticholic acid], the “patients with severe pruritus” value in [4] (OCALIVA 10 mg arm) was 23%; in [4] (OCALIVA titration arm), 19%. Also, the “serum IL-31 concentration” value in the data set on human IL-31 was 3.7 pg/mL. Besides, the “mRNA expression in human hepatocytes” value with IL-31 [5] is “increased”.

Take `CCO[C@H](COc1ccc(C(F)(F)F)cc1)CSc1ccc(OCC(=O)O)c(C)c1` [seladelpar, [4-({(2R)-2-ethoxy-3-[4-(trifluoromethyl)phenoxy]propyl}sulfanyl)-2-methylphenoxy]acetic acid]: the uremic pruritus result in [6] and in [11] was “improvement in their uremic pruritus” each time. For the same molecule, in the data set with human IL-31, the “serum IL-31 concentration” value amounted to 0.19 pg/mL. Besides, the “mean IL-31 level at end of study” value was 1.7 pg/mL in the data set with IL-31 [7] (5 mg/day oral, from 3.8 pg/mL at baseline) and 1.7 pg/mL in the data set on IL-31 [7] (10 mg/day oral, from 4.2 pg/mL at baseline). Moreover, in data set [8], the “specificity compared with peroxisome proliferator-activated receptor-α” value is more than 600 fold. In addition, in [9] (oral doses of 5, 10, 50 and 200 mg/day), the “efficacy in PBC” value is “effective in the treatment of PBC”. Besides, the “effect on cholestatic pruritus (exacerbation)” value in data set [9] (oral doses of 5, 10, 50 and 200 mg/day in PBC) is listed as “not to exacerbate cholestatic pruritus”. For the same molecule, the “efficacy in cholestatic pruritus associated with PBC” value in data set [9] (oral doses of 5 and 10 mg/day) is reported as “effective in the treatment of cholestatic pruritus”. Besides, the “effect on IL-31” value in [9] (studies in PBC) is “reduce IL-31”. Further, the “IL-31 concentration in culture medium, mean” value in [10] (Donor 1, IL-4 promoted) is 36.00 pg/mL; in [10] (Donor 1, IL-33 promoted), 10.14 pg/mL; in [10] (Donor 2, IL-4 promoted), 27.28 pg/mL; in [10] (Donor 2, IL-33 promoted), 324.05 pg/mL. Further, the “effect on IL-31 production by CD4 T cells” value in [10] (both donors, both promoters, p<0.0001 vs DMSO, Mann-Whitney) was “reduced IL-31 production”.
